Measurements taken from ChEMBL document CHEMBL1944626, “Design, synthesis and biological evaluation of N-phenylsulfonylnicotinamide derivatives as novel antitumor inhibitors” (Bioorg Med Chem, 2012).
Activity calls are given as the source filed them. The calls are words filed in the database; no cut-off is given here.

How the values were obtained:
MCF7 = assay: Antiproliferative activity against human MCF7 cells after 48 hrs by MTT assay; format: functional, cell-based; details: MCF7, 48 h
[1] = molecular target: T1, Epidermal growth factor receptor (Homo sapiens, UniProt P00533); assay: Inhibition of autophosphorylation of recombinant His-tagged EGFR expressed in baculovirus infected Sf9 cells after 1 hr by DELFIA/time-resolved fluorimetry assay
T1 sequence (P00533 whole entry): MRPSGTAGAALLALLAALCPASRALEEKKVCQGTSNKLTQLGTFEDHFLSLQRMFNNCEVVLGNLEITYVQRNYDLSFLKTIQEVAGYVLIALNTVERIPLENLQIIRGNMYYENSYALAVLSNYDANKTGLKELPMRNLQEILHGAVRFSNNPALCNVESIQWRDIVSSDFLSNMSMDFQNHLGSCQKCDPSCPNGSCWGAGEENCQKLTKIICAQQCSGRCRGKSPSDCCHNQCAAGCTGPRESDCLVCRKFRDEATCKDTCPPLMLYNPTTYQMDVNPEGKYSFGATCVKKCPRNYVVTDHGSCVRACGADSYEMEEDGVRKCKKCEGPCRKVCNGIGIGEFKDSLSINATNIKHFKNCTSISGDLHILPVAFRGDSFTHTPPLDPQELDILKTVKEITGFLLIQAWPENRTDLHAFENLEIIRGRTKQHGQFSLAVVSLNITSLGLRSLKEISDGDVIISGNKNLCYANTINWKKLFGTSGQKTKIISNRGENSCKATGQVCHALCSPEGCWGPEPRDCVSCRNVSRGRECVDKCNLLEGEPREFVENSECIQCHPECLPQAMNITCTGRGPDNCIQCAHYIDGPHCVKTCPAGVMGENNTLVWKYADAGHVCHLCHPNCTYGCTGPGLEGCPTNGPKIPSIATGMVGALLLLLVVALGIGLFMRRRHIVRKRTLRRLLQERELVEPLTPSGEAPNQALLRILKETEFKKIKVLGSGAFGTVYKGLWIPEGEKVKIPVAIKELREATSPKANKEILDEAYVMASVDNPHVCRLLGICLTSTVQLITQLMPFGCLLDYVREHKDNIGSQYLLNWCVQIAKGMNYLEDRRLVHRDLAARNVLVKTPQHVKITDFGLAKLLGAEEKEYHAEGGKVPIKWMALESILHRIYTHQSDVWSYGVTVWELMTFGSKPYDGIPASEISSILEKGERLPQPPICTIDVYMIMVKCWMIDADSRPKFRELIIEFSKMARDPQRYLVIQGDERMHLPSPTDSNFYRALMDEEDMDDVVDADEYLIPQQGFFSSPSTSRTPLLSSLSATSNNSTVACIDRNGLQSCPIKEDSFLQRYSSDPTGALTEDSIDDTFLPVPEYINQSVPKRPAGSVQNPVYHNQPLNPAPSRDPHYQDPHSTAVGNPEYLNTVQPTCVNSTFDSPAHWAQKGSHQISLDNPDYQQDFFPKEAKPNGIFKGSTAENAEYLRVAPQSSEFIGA

[2] = molecular target: T1, Epidermal growth factor receptor; assay: Inhibition of EGF-stimulated EGFR autophosphorylation in human MCF7 cells at >1.5 uM treated 1 hr before EGF challenge measured after 15 mins by Western immunoblot analysis; format: cell-based

Row | IC50 (MCF7) [µM] | IC50 [1] [µM] | inhibition [2] | SMILES
1 | 0.07 | 0.09 | Active | O=C(NS(=O)(=O)c1ccc(Cl)cc1)c1cncc(Br)c1
2 | 16 | > 30 |  | O=C(NS(=O)(=O)c1ccc(F)cc1)c1cccnc1
3 | 1.97 | 2.64 |  | Cc1ccc(C(=O)NS(=O)(=O)c2ccc(Br)cc2)c(Cl)n1
4 | 0.98 | 3.27 |  | O=C(NS(=O)(=O)c1ccc(F)cc1)c1cncc(Br)c1
5 | 0.34 | 2.08 |  | O=C(NS(=O)(=O)c1ccc(Br)cc1)c1cncc(Br)c1
6 | 13 | 25.4 |  | O=C(NS(=O)(=O)c1ccc(Cl)cc1)c1cccnc1
7 | 12.5 | 27 |  | Cc1ccc(S(=O)(=O)NC(=O)c2cccnc2Cl)cc1
8 | 8.07 | 18.1 |  | O=C(NS(=O)(=O)c1ccc(Cl)cc1)c1ccc(Cl)nc1
9 | 9.37 | 12.1 |  | Cc1ccc(S(=O)(=O)NC(=O)c2cncc(Br)c2)cc1
10 | 9.05 | 29.1 |  | O=C(NS(=O)(=O)c1ccc(Br)cc1)c1ccc(Cl)nc1
11 | 14.4 | > 30 |  | O=C(NS(=O)(=O)c1ccccc1)c1cccnc1
12 | 11.4 | 15.7 |  | O=C(NS(=O)(=O)c1ccc(Br)cc1)c1cccnc1Cl
13 | 12.5 | 28.7 |  | O=C(NS(=O)(=O)c1ccc(F)cc1)c1cccnc1Cl
14 | 17.2 | > 30 |  | Cc1ccc(S(=O)(=O)NC(=O)c2ccc(Cl)nc2)cc1
15 | 14 | > 30 |  | O=C(NS(=O)(=O)c1ccccc1)c1cccnc1Cl
16 | 12 | 24.8 |  | Cc1ccc(S(=O)(=O)NC(=O)c2cccnc2)cc1
17 | 14.7 | > 30 |  | O=C(NS(=O)(=O)c1ccc(Br)cc1)c1cccnc1
18 | 1.35 | 1.19 |  | Cc1ccc(C(=O)NS(=O)(=O)c2ccc(Cl)cc2)c(Cl)n1
19 | 14.1 | > 30 |  | O=C(NS(=O)(=O)c1ccccc1)c1ccc(Cl)nc1
20 | 8.52 | 15 |  | Cc1ccc(S(=O)(=O)NC(=O)c2ccc(C)nc2Cl)cc1
21 | 16.8 | > 30 |  | O=C(NS(=O)(=O)c1ccc(F)cc1)c1ccc(Cl)nc1
22 | 13.4 | 21.6 |  | Cc1ccc(C(=O)NS(=O)(=O)c2ccccc2)c(Cl)n1
23 | 10.2 | 19.8 |  | O=C(NS(=O)(=O)c1ccc(Cl)cc1)c1cccnc1Cl
